Literature values, collected in patent publication US20110166112A1, “METHOD FOR STIMULATING PLATELET PRODUCTION” (Eisai, Inc., priority 2009, published 2011).

System: subjects
Conditions: in eight days; cited from earlier work

CC1=NN(c2ccc(C)c(C)c2)C(=O)/C1=N\Nc1cccc(-c2cccc(C(=O)O)c2)c1O.NCCO.NCCO [Promacta®]
subjects who achieved a platelet response of 50,000/mm^3: 44-62%
